Measured values as given in PubChem BioAssay (NCI).
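Test compounds were applied to cells in 96-well plates for 48 hours at 5 doses. TGI: total growth inhibition.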

How the values were obtained:
Experiment in all cases: NCI tumour cell line growth inhibition, 48 h
HCT-15 colon = test system: HCT-15 colon
T-47D breast = test system: T-47D breast
OVCAR-3 ovarian = test system: OVCAR-3 ovarian
NCI-H522 lung = test system: NCI-H522 lung
MDA-N = test system: MDA-N
DU-145 prostate = test system: DU-145 prostate
SK-OV-3 ovarian = test system: SK-OV-3 ovarian
MOLT-4 leukemia = test system: MOLT-4 leukemia
SK-MEL-28 melanoma = test system: SK-MEL-28 melanoma
U251 CNS = test system: U251 CNS
NCI/ADR-RES ovarian = test system: NCI/ADR-RES ovarian
CCRF-CEM leukemia = test system: CCRF-CEM leukemia
HS 578T breast = test system: HS 578T breast
SF-295 CNS = test system: SF-295 CNS
UO-31 renal = test system: UO-31 renal
ACHN renal = test system: ACHN renal
OVCAR-4 ovarian = test system: OVCAR-4 ovarian
SW-620 colon = test system: SW-620 colon
HOP-62 NSCLC = test system: HOP-62 NSCLC
SF-268 CNS = test system: SF-268 CNS

SMILES | TGI (HCT-15 colon) [µM] | TGI (T-47D breast) [µM] | TGI (OVCAR-3 ovarian) [µM] | TGI (NCI-H522 lung) [µM] | TGI (MDA-N) [µM] | TGI (DU-145 prostate) [µM] | TGI (SK-OV-3 ovarian) [µM] | TGI (MOLT-4 leukemia) [µM] | TGI (SK-MEL-28 melanoma) [µM] | TGI (U251 CNS) [µM] | TGI (NCI/ADR-RES ovarian) [µM] | TGI (CCRF-CEM leukemia) [µM] | TGI (HS 578T breast) [µM] | TGI (SF-295 CNS) [µM] | TGI (UO-31 renal) [µM] | TGI (ACHN renal) [µM] | TGI (OVCAR-4 ovarian) [µM] | TGI (SW-620 colon) [µM] | TGI (HOP-62 NSCLC) [µM] | TGI (SF-268 CNS) [µM]
CC(=O)OC/C=C/[C@H](O[Si](C)(C)C(C)(C)C)[C@@H](O)/C=C/COC(C)=O | > 100 | > 100 | > 100 | > 100 | > 100 | > 100 | > 100 | 54.8 | > 100 | > 100 | > 100 | 52 | > 100 | > 100 | > 100 | > 100 | > 100 | > 100 | > 100 | > 100
O=C(c1ccccc1)n1c(Cc2ccccc2)nc2cc(C34CC5CC(CC(C5)C3)C4)ccc21 | 48.5 | > 100 |  | > 100 | > 100 | > 100 | > 100 | > 100 | > 100 | > 100 | > 100 | > 100 | > 100 | > 100 | > 100 | > 100 | > 100 | > 100 | > 100 | > 100
O=C1C(N2CCN(c3ccccn3)CC2)=C(Cl)C(=O)c2ncccc21 | 4.06 | 4.09 | 3.95 | 1.03 | 3.08 | > 10 | > 10 | 5.99 | > 7.95 | > 10 | > 10 | 6.28 | > 10 | > 10 | > 5.53 | 4.91 | 1.95 | 2.78 | > 10 | > 10
CC[C@H](CCCC[C@H]1CC[C@@H]2CC(=O)C[C@H]12)OC | > 100 | > 100 | > 100 | > 100 | > 100 | > 100 | > 100 | > 100 | > 100 | > 100 | > 100 | > 100 | > 100 | > 100 | > 100 | > 100 | > 100 | > 100 | > 100 | > 100
CN(CCNC(=O)c1nn(-c2ccccc2)c2c1Cc1ccccc1-2)CCNC(=O)c1nn(-c2ccccc2)c2c1Cc1ccccc1-2 | 3.67 | > 22.5 | 3.52 | 3.15 | 3.16 | 6.75 | 4.31 | 11 | 3.24 | 3.09 | 6.36 | 4.68 | 3.77 | 3.34 | 3.22 | 3.44 | 4.48 | 3.09 | 3.6 | 4.74
CC(Cc1ccccc1)Nc1ncnc2c1ncn2C1OC(CO)CC1O (stereo not drawn) | > 100 | > 100 | > 100 | > 100 | > 100 | > 100 | 13.7 | > 100 | > 100 | > 100 | > 100 | > 100 | > 100 | 6.21 | > 100 | > 100 | > 100 | > 100 | > 100 | > 100
c1ccc(-c2nnc(-c3ccccn3)c3c2C[C@@H]2C[C@@H]4Cc5c(-c6ccccn6)nnc(-c6ccccn6)c5[C@@H]4[C@H]32)nc1 | > 100 | > 100 | > 100 | > 100 | > 100 | > 100 | > 100 | > 100 | 75.9 | 89.1 | > 100 | > 100 | > 100 | > 100 | > 100 | > 100 | > 100 | > 100 | > 100 | > 100
COc1cc(C2=C(c3cc(OC)c4ccccc4c3OC)C(=O)c3ccccc3C2=O)c(OC)c2ccccc12 | > 100 | > 100 | > 100 | > 100 | > 100 | > 100 | > 100 | > 100 | > 100 | > 100 | > 100 | > 100 | > 100 | > 100 | > 100 | > 100 | > 100 | > 100 | > 100 | > 100
CN1CCc2c3n(c4cc(Br)ccc24)[C@H](O)CCCC31 (stereo partly drawn) | > 5.77 | > 10 | > 10 | 3.01 | 3.24 | > 10 | > 10 | 3.97 | 3.19 | 3.35 | > 10 | 3.74 | 4.57 | 3.53 | > 10 | > 10 | > 7.44 | 3.47 | > 10 | > 10
O=C(NNC(=S)Nc1ccccc1)c1cc(-c2ccccc2)nc2ccccc12 | 33 | 50.5 | 24.4 | 52.6 | 37.9 | 39.1 | 43.2 | 32.2 | 59.5 | 30.8 | 52.1 | 29.9 | 65.6 | 27.4 | 31 | 91.9 | 56.2 | 49.9 | 33.3 | 76.3
CC[C@@]1(O)C(=O)OCc2c1cc1n(c2=O)Cc2c-1nc1ccccc1c2/C=N\NC(=O)C(N)CO (stereo partly drawn) | > 100 | > 100 | > 100 | > 42.2 | > 100 | > 100 | > 100 | 1.58 | > 100 | > 20.9 | 9.2 | > 19.7 | > 100 | > 100 | 11 |  | > 100 | > 100 | 9.35 | 7.36
